# From article PMC10732325 (ACS catalysis, 2023)
# Assays:
# [1] = target: VldE (Streptomyces hygroscopicus, UniProt Q15JG1, H182A); assay: X-ray crystal structure; format: binding; settings: apo crystals soaked with 10 mM GDP-glucose, only GDP found; pH 8.0
# [2] = target: VldE (Streptomyces hygroscopicus, UniProt Q15JG1, D158N); assay: X-ray crystal structure; format: binding; settings: apo crystals soaked with 10 mM GDP-glucose, only GDP found; pH 8.5
# Sequence of VldE (Streptomyces hygroscopicus, UniProt Q15JG1, D158N) (Q15JG1 whole entry D158N): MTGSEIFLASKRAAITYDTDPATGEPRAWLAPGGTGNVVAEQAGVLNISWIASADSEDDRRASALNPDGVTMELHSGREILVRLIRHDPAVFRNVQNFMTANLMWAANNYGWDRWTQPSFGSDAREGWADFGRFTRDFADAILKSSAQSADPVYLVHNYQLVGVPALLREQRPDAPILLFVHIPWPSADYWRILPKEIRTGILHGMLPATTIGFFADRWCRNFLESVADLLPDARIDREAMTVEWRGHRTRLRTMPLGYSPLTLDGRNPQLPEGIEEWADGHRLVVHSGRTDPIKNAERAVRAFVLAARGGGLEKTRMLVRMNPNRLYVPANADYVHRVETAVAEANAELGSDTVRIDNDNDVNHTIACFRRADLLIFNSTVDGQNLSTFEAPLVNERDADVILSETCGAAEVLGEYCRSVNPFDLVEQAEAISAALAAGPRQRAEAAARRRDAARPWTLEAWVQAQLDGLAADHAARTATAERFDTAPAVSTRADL
# Sequence of VldE (Streptomyces hygroscopicus, UniProt Q15JG1, H182A) (Q15JG1 whole entry H182A): as the sequence (Q15JG1 whole entry D158N) above, with N158D, H182A counted along it
compound,measurement,setting,value
Nc1nc2c(ncn2[C@@H]2O[C@H](COP(=O)(O)OP(=O)(O)O)[C@@H](O)[C@H]2O)c(=O)[nH]1 [GDP],X-ray crystal structure,[1],only the crystal structures of the two variants in complex with GDP were obtained
same,X-ray crystal structure,[2],only the crystal structures of the two variants in complex with GDP were obtained
